# In publication PMC10568461, “A pilot study of cerebral metabolism and serotonin 5-HT2A receptor occupancy in rats treated with the psychedelic tryptamine DMT in conjunction with the MAO inhibitor harmine” (Frontiers in Pharmacology, 2023):
# Key:
# [1] = target: T1, serotonin 5-HT2A receptors (Rattus norvegicus, UniProt P14842); assay: Ex vivo occupancy at frontal cortex 5-HT2A receptors with [^3H]ketanserin (experiment 1); format: in vivo
# T1 construct: from tissue; host or cells: rat frontal cortex (living rat brain, measured ex vivo after in vivo radioligand injection)
# Procedure: Groups of (n = 6) rats received either saline, harmine (1 mg/kg), DMT (1 mg/kg), or harmine + DMT (1 mg/kg each) as subcutaneous injections, as indicated in Figure 1. Approximately 5 minutes later, the animals were lightly anesthetized using (2% isoflurane in pure oxygen) and received [^3H]ketanserin (300 kBq; 740 MBq/µmol) as a bolus injection in 0.2 mL saline via a tail vein. […] At the conclusion of the PET recording, rats were sacrificed while still anesthetized, thus 95 min after drug administration. Terminal samples of cerebellum (non-binding reference tissue) and frontal cortex were transferred to preweighed 7 mL liquid scintillation vials, reweighed, and added with 0.9 mL of aqueous based solubilizer (Solvable, Perkin Elmer) for dissolution during 48 h at room temperature. Next, 7 mL of liquid scintillation counting cocktail (Ultima Gold™ XR, Perkin Elmer) was added to each sample, and the content of tritium (i.e., [^3H]ketanserin, cpm/mg) was measured by liquid scintillation counting (TRI-CARB, Perkin Elmer). We calculated the occupancy by DMT at frontal cortex 5-HT2A receptors for the three treatment groups relative to the specific binding ratio ([cortex-cerebellum]/cerebellum) for the control group.
# [2] = target: T1, serotonin 5-HT2A receptors; assay: Ex vivo occupancy at frontal cortex 5-HT2A receptors with [^18F]MH.MZ (experiment 2); format: in vivo; conditions: Experiment 2, [^18F]MH.MZ
# Procedure: Animals were lightly sedated using 2% isoflurane in pure oxygen at 20 min post DMT injection, whereupon they received a 0.2 mL intravenous injection of [^18F]MH.MZ diluted in saline to a radiochemical concentration of approximately 20 MBq/mL. Rats then returned to their home cage with withdrawal of anesthesia. After 45 min, rats were sacrificed by decapitation, and the brains dissected into cerebellum and frontal cortex samples for radioactivity measurement and chemical analysis, thus 65 min after harmine + DMT. The gamma-activity in weighed samples of cerebellum and frontal cortex regions was counted with a Packard Cobra gamma counter (GMI, Ramsey, Minnesota, US), as previously reported ([Bærentzen et al., 2019]). As with [^3H]ketanserin, the occupancy at [^18F]MH.MZ binding sites in frontal cortex was calculated from the specific binding ratio (cortex-cerebellum)/cerebellum) measured in the saline control and treatment groups.
# brain glucose metabolism = assay: [^18F]FDG-PET of cerebral glucose metabolism (experiment 1); format: in vivo, rat; conditions: for [^18F]FDG-PET SUV normalized to whole-brain uptake (SUVglob): 1 mg/kg s.c.; for [^18F]FDG-PET SUV normalized to whole-brain uptake (SUVglob) / [^18F]FDG-PET glucose normalized SUV (SUVgluc): mean (SD)
# Procedure: The dynamic PET recordings were histogrammed into six frames of 5 minutes each, and reconstructed with attenuation, decay, and scatter correction using the OSEM3D/SP-MAP algorithm (2 x OSEM iterations and 18 x MAP iterations) with a matrix size of 128 × 128 pixels, resulting in a final target resolution of 0.8 mm/pixel. Pre-processing of PET scans was performed using PMOD v4.2 (PMOD Technologies LLC, Zurich, Switzerland). The [^18F]FDG images were averaged across the six frames and then converted into standardized uptake values (SUV), whereupon the image was cropped to the head of the animal and automatically co-registered to a standard [^18F]FDG-PET template. We used Schiffer’s atlas ([Schiffer et al., 2006]) for parcellation of bilateral brain regions within the cortico-striato-thalamo-cortical (CSTC) circuit, i.e. bilateral nucleus accumbens (NAc), medial prefrontal cortex (mPFC), orbitofrontal cortex (OFC), hippocampus, striatum, thalamus, visual cortex, cerebellum as a comparator region, and whole brain. We selected these regions from the CSTC circuit based on a conceptual model holding that the thalamus acts as a filter/gatekeeper of sensory information, broadcasting to cortical regions that subserve conscious experience ([Wang et al., 2006]; [McAlonan et al., 2008]). Perturbation of this CSTC circuit is implicated in the action of psychedelic compounds ([Geyer and Vollenweider, 2008]; [Preller et al., 2019]). We scaled individual regional SUV results to the mean blood glucose levels measured during the recording session (SUVgluc) and to the global [^18F]FDG uptake (SUVglob).
# rats = assay: Behavioural observations in treated rats; format: in vivo, rat; conditions: in some DMT- (and harmine-) treated rats; not systematically assessed
# [3] = target: serotonin 5-HT2A receptors; parameters: method as in ref Lyon et al., 1988; Pierce and Peroutka, 1989; McKenna et al., 1990; Keiser et al., 2009; Ray, 2010; conditions: ref Lyon et al., 1988, Pierce and Peroutka, 1989, McKenna et al., 1990, Keiser et al., 2009, Ray, 2010, cited from earlier work
# serotonin 5-HT1A = test system: serotonin 5-HT1A; parameters: method as in ref Lyon et al., 1988; Pierce and Peroutka, 1989; McKenna et al., 1990; Keiser et al., 2009; Ray, 2010; conditions: ref Lyon et al., 1988; Pierce and Peroutka, 1989; McKenna et al., 1990; Keiser et al., 2009; Ray, 2010; cited from earlier work
# 5-HT2C receptors = target: 5-HT2C receptors; parameters: method as in ref Lyon et al., 1988; Pierce and Peroutka, 1989; McKenna et al., 1990; Keiser et al., 2009; Ray, 2010; conditions: ref Lyon et al., 1988; Pierce and Peroutka, 1989; McKenna et al., 1990; Keiser et al., 2009; Ray, 2010; cited from earlier work
# brain 5-HT2A receptors = conditions: calculated; humans, oral DMT and harmine; ref Koeck, 2015; cited from earlier work
# [4] = Brain concentrations of harmine, DMT and metabolites by UHPLC-MS after s.c. harmine and/or DMT; conditions: for concentration at 95 min / concentration at 65 min: rat, subcutaneous
# Procedure: Groups of (n = 6) rats received either saline, harmine (1 mg/kg), DMT (1 mg/kg), or harmine + DMT (1 mg/kg each) as subcutaneous injections, as indicated in Figure 1.
# After 45 min, rats were sacrificed by decapitation, and the brains dissected into cerebellum and frontal cortex samples for radioactivity measurement and chemical analysis, thus 65 min after harmine + DMT.
# T1 sequence (P14842 whole entry): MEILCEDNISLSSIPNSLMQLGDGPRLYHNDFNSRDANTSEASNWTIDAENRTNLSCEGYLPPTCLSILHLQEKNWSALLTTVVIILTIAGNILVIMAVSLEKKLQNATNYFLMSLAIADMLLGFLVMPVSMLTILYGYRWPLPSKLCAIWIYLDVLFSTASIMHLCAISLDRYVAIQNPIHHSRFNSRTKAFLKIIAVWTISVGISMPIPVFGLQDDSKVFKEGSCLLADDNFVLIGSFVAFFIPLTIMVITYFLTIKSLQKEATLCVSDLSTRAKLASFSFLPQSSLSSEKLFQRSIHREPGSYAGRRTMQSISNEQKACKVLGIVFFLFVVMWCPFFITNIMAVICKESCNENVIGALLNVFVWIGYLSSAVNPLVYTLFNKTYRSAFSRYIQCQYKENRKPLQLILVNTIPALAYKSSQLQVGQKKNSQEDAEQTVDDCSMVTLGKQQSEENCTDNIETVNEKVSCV
compound,measurement,setting,value
"CN(C)CCc1c[nH]c2ccccc12 [DMT, N,N-dimethyltryptamine]",[^3H]ketanserin specific binding ratio in frontal cortex,"[1]; Experiment 1, 1 mg/kg each s.c., 95 min after administration, (cortex-cerebellum)/cerebellum",2.15 ± 0.39
same,Occupancy at 5-HT2A sites ex vivo,"[1]; Experiment 1, [^3H]ketanserin",unable to detect any such occupancy
same,Occupancy at 5-HT2A sites ex vivo,[2],unable to detect any such occupancy
same,Qualitative effect on brain [^18F]FDG uptake (SUVglob maps),"brain glucose metabolism; 1 mg/kg, separately or in combination",no conspicuous effects
same,Trend towards relative increase in SUVglob in hippocampus and thalamus,"brain glucose metabolism; Experiment 1, 1 mg/kg",~5%
same,[^18F]FDG-PET SUV normalized to whole-brain uptake (SUVglob),brain glucose metabolism; NAc,6.2 (0.36) SUV
same,[^18F]FDG-PET glucose normalized SUV (SUVgluc),"brain glucose metabolism; NAc, 1 mg/kg",6.48 (0.93) SUV
same,[^18F]FDG-PET SUV normalized to whole-brain uptake (SUVglob),brain glucose metabolism; OFC,6.52 (0.15) SUV
same,[^18F]FDG-PET glucose normalized SUV (SUVgluc),"brain glucose metabolism; OFC, 1 mg/kg",6.82 (0.84) SUV
same,[^18F]FDG-PET SUV normalized to whole-brain uptake (SUVglob),brain glucose metabolism; cerebellum,4.56 (0.23) SUV
same,[^18F]FDG-PET glucose normalized SUV (SUVgluc),"brain glucose metabolism; cerebellum, 1 mg/kg",4.76 (0.64) SUV
same,[^18F]FDG-PET SUV normalized to whole-brain uptake (SUVglob),brain glucose metabolism; hippocampus,4.95 (0.21) SUV
same,[^18F]FDG-PET glucose normalized SUV (SUVgluc),"brain glucose metabolism; hippocampus, 1 mg/kg",5.2 (0.85) SUV
same,[^18F]FDG-PET SUV normalized to whole-brain uptake (SUVglob),brain glucose metabolism; mPFC,6.95 (0.34) SUV
same,[^18F]FDG-PET glucose normalized SUV (SUVgluc),"brain glucose metabolism; mPFC, 1 mg/kg",7.3 (1.24) SUV
same,[^18F]FDG-PET SUV normalized to whole-brain uptake (SUVglob),brain glucose metabolism; striatum,6.91 (0.24) SUV
same,[^18F]FDG-PET glucose normalized SUV (SUVgluc),"brain glucose metabolism; striatum, 1 mg/kg",7.24 (1.07) SUV
same,[^18F]FDG-PET SUV normalized to whole-brain uptake (SUVglob),brain glucose metabolism; thalamus,6.33 (0.1) SUV
same,[^18F]FDG-PET glucose normalized SUV (SUVgluc),"brain glucose metabolism; thalamus, 1 mg/kg",6.62 (0.86) SUV
same,[^18F]FDG-PET SUV normalized to whole-brain uptake (SUVglob),brain glucose metabolism; visual cortex,6.27 (0.13) SUV
same,[^18F]FDG-PET glucose normalized SUV (SUVgluc),"brain glucose metabolism; visual cortex, 1 mg/kg",6.57 (0.99) SUV
same,[^18F]FDG-PET glucose normalized SUV (SUVgluc),"brain glucose metabolism; whole brain, 1 mg/kg",5.8 (0.81) SUV
same,Head twitch response,rats,observed the characteristic dose-dependent head twitch response
same,IC50,[3]; read-out: IC50 at 5-HT2A receptors in vitro,75 to 360 nM
same,Ki,[3]; read-out: Ki at 5-HT2A receptors in vitro,127 to 1200 nM
same,IC50,serotonin 5-HT1A,170 nM
same,Ki,serotonin 5-HT1A,183 nM
same,IC50,5-HT2C receptors,360 nM
same,Ki,5-HT2C receptors,360 to 2630 nM
same,Time of peak DMT occupancy post-administration,brain 5-HT2A receptors,0.5 to 1.5 h
same,Percentage of total molar concentration of DMT and metabolites,"[4]; Exp 1, group DMT, average of regions",2.3%
same,Percentage of total molar concentration of DMT and metabolites,"[4]; Exp 1, group DMT, cerebellum",2.0%
same,Percentage of total molar concentration of DMT and metabolites,"[4]; Exp 1, group DMT, front cort",2.6%
same,Percentage of total molar concentration of DMT and metabolites,"[4]; Exp 1, group Har + DMT, average of regions",33.9%
same,Percentage of total molar concentration of DMT and metabolites,"[4]; Exp 1, group Har + DMT, cerebellum",32.9%
same,Percentage of total molar concentration of DMT and metabolites,"[4]; Exp 1, group Har + DMT, front cort",34.7%
same,Percentage of total molar concentration of DMT and metabolites,"[4]; Exp 2, group Har + DMT, average of regions",73.3%
same,Percentage of total molar concentration of DMT and metabolites,"[4]; Exp 2, group Har + DMT, cerebellum",71.1%
same,Percentage of total molar concentration of DMT and metabolites,"[4]; Exp 2, group Har + DMT, front cort",74.9%
same,DMT detectable in brain,"[4]; Experiment 1, after DMT alone (1 mg/kg)",Only traces
same,Brain concentration,"[4]; Experiment 1, cerebellum, group Har + DMT (1 mg/kg each s.c.), 95 min, mean (SD)",105.1 (89.2) ng/g
same,Brain concentration,"[4]; Experiment 1, frontal cortex, group Har + DMT (1 mg/kg each s.c.), 95 min, mean (SD)",149.5 (123.2) ng/g
same,DMT/3-IAA ratio in brain,"[4]; Experiment 1, harmine + DMT 1 mg/kg each",approximately 0.53
same,Brain concentration,"[4]; Experiment 2, cerebellum, group Har + DMT (3 mg/kg each s.c.), 65 min, mean (SD)",1472.7 (369.2) ng/g
same,Brain concentration,"[4]; Experiment 2, frontal cortex, group Har + DMT (3 mg/kg each s.c.), 65 min, mean (SD)",2122.7 (434.2) ng/g
same,DMT/3-IAA ratio in brain,"[4]; Experiment 2, harmine + DMT 3 mg/kg each",~2.83
same,Brain concentration after 3 mg/kg harmine + DMT relative to the lower harmine + DMT dose,[4]; Experiment 2 versus experiment 1,14 fold
same,Higher DMT concentration in frontal cortex compared to cerebellum,"[4]; Experiments 1 and 2, harmine + DMT",50%
same,concentration at 95 min,"[4]; brain (average of frontal cortex and cerebellum), 1 mg/kg, Molar concentration, Exp 1, group DMT, average of regions",61.5 nM
same,concentration at 95 min,"[4]; brain (average of frontal cortex and cerebellum), Molar concentration, Exp 1, group Har + DMT, average of regions",676 nM
same,concentration at 65 min,"[4]; brain (average of frontal cortex and cerebellum), Molar concentration, Exp 2, group Har + DMT, average of regions",9550 nM
same,concentration at 95 min,"[4]; cerebellum, 1 mg/kg, Brain concentration, Experiment 1, cerebellum, group DMT (1 mg/kg s.c.), 95 min, mean (SD)",8.7 ng/g
same,concentration at 95 min,"[4]; cerebellum, 1 mg/kg, Molar concentration, Exp 1, group DMT, cerebellum",46 nM
same,concentration at 95 min,"[4]; cerebellum, Brain concentration, Experiment 1, cerebellum, after harmine + DMT (1 mg/kg each)",600 nM
same,concentration at 95 min,"[4]; cerebellum, Brain concentration, Experiment 1, cerebellum, group Har (harmine 1 mg/kg s.c.), 95 min after drug, mean (SD)",4.1 ng/g
same,concentration at 95 min,"[4]; cerebellum, Brain concentration, Experiment 1, cerebellum, group Har + DMT (1 mg/kg each s.c.), 95 min, mean (SD)",105 ng/g
same,concentration at 65 min,"[4]; cerebellum, Brain concentration, Experiment 2, cerebellum, after harmine + DMT (3 mg/kg each)",7800 nM
same,concentration at 65 min,"[4]; cerebellum, Brain concentration, Experiment 2, cerebellum, group Har + DMT (3 mg/kg each s.c.), 65 min, mean (SD)",1470 ng/g
same,concentration at 95 min,"[4]; cerebellum, Molar concentration, Exp 1, group Har + DMT, cerebellum",558 nM
same,concentration at 65 min,"[4]; cerebellum, Molar concentration, Exp 2, group Har + DMT, cerebellum",7820 nM
same,concentration at 95 min,"[4]; frontal cortex, 1 mg/kg, Brain concentration, Experiment 1, frontal cortex, group DMT (1 mg/kg s.c.), 95 min, mean (SD)",14.5 ng/g
same,concentration at 95 min,"[4]; frontal cortex, 1 mg/kg, Molar concentration, Exp 1, group DMT, front cort",77.1 nM
same,concentration at 95 min,"[4]; frontal cortex, Brain concentration, Experiment 1, frontal cortex, after harmine + DMT (1 mg/kg each), 95 min",800 nM
same,concentration at 95 min,"[4]; frontal cortex, Brain concentration, Experiment 1, frontal cortex, group Har (harmine 1 mg/kg s.c.), 95 min, mean (SD)",4.8 ng/g
same,concentration at 95 min,"[4]; frontal cortex, Brain concentration, Experiment 1, frontal cortex, group Har + DMT (1 mg/kg each s.c.), 95 min, mean (SD)",150 ng/g
same,concentration at 65 min,"[4]; frontal cortex, Brain concentration, Experiment 2, frontal cortex, after harmine + DMT (3 mg/kg each), 65 min",≤ 11300 nM
same,concentration at 65 min,"[4]; frontal cortex, Brain concentration, Experiment 2, frontal cortex, group Har + DMT (3 mg/kg each s.c.), 65 min, mean (SD)",2120 ng/g
same,concentration at 95 min,"[4]; frontal cortex, Molar concentration, Exp 1, group Har + DMT, front cort",794 nM
same,concentration at 65 min,"[4]; frontal cortex, Molar concentration, Exp 2, group Har + DMT, front cort",11300 nM
